Assay results as given in patent US20190343858A1, “METHOD OF REGULATING THE CIRCADIAN RHYTHM OF AN INDIVIDUAL COMPRISING ADMINISTERING AN EFFECTIVE AMOUNT OF A CIRCADIAN RHYTHM REGULATOR CONTAINING 1,2-DI-O-GALLOYL-4,6-O-(S)-HEXAHYDROXYDIPHENOYL-B-D-GLUCOSE” (ORYZA OIL & FAT CHEMICAL CO., LTD,, priority 2017, published 2019).

System: BMAL1 gene
Assay: Evaluation of the BMAL1 gene-expression-promotion activity (BMAL1 mRNA amount via reverse-transcribed cDNA)
Assay type: cell-based
Conditions: rat-muscle myoblasts C2Cl2, differentiation-induction, cultivated one week; 3 μg/mL; Dunnett, ** p<0.01
Protocol: Differentiation-induction was done to the rat-muscle myoblasts C2Cl2. At the same time, the purple-tea extract of 0.1, 1.0, 3.0 and 10 μg/mL, and the GHG of 0.1, 1.0 and 3 μg/mL, was respectively added to such myoblasts and cultivated for one week. After that, an RNA extraction was done to determine, by using a reverse-transcribed cDNA, the amount of mRNA and of the BMAL1 gene.
A significance-test was done by the Dunnett Method, and the double asterisk ** means p<0.01. Also, no active components were added to the “control,” but the purple-tea extract (GHG-content extract) was added to the “PTE.”

O=C(OC1OC2COC(=O)c3cc(O)c(O)c(O)c3-c3c(cc(O)c(O)c3O)C(=O)OC2C(O)C1OC(=O)c1cc(O)c(O)c(O)c1)c1cc(O)c(O)c(O)c1 [GHG, 1,2-di-O-galloyl-4,6-O—(S)-hexahydroxydiphenoyl-ß-D-glucose]
expression-level of the BMAL1 gene against the Control: significantly was seen to have increased
